Measured values taken from patent US10517889B2, “Modulators of SMAD7 expression” (Ionis Pharmaceuticals, Inc., priority 2017, dated 2019).
Strand notation (5' to 3'): a small letter for the sugar, then the base; units joined by * are phosphorothioate-linked, units joined directly phosphodiester-linked; [ ] holds rarer units or linkages, { } end groups; capitals alone tell only the bases. k = constrained ethyl (cEt); [5mC] = 5-methylcytosine; d = 2'-deoxy (DNA)

These substances were tested on human SMAD7 mRNA (assay: Antisense inhibition of human SMAD7 mRNA expression in Hep3B cells by 3-10-3 cEt gapmers, 10,000 nM, electroporation (Example 2)). Settings: Hep3B cells, 10,000 nM antisense oligonucleotide, electroporation, approximately 24 hours, RT-PCR primer probe set RTS5062, relative to untreated control cells.
Type: cell-based
Procedure, shortened: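 qRT-PCR (RTS5062) of SMAD7 mRNA, normalised to RIBOGREEN total RNA, gave percent inhibition relative to untreated controls. Hep3B cells at 20,000 per well received 10,000 nM oligonucleotide by electroporation, with ~24 h treatment.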

Going from “772628 (kG*k[5mC]*k[5mC]*dT*dT*dG*dA*dT*dG*dG*dA*dG*dA*kA*kA*k[5mC]; antisense) [compound 772628]” to “798826 (k[5mC]*kT*k[5mC]*d[5mC]*dT*dG*dG*dA*d[5mC]*dA*d[5mC]*dA*dG*kT*kA*kG; antisense) [compound 798826]”, the “% Inhibition” value falls from 33% to 14%.

Compared with “799879 (kT*kG*kG*dA*dA*dA*dA*dG*d[5mC]*dT*d[5mC]*d[5mC]*dT*kT*k[5mC]*kT; antisense) [compound 799879]”, “798926 (antisense k[5mC]*kA*kA*dA*dG*dT*dA*dG*dT*dT*dT*dG*dA*kA*kG*kT) [compound 798926]” is higher in “% Inhibition” value: 3% for the first, 17% for the second.

Same assay, conditions: Hep3B cells, electroporation with 10,000 nM antisense oligonucleotide, approximately 24 hours, RTS5062, percent inhibition of SMAD7 mRNA relative to untreated control cells

First: 790715 (kT*kG*kT*d[5mC]*dA*d[5mC]*d[5mC]*d[5mC]*dG*dT*d[5mC]*dT*dG*kG*kG*k[5mC]; antisense) [compound 790715]
Second: 799592 (kG*kG*kA*dA*dT*dT*dA*dG*dT*dA*dA*dA*dT*k[5mC]*kA*kA; antisense) [compound 799592]
The “% Inhibition” value of the first is lower: 16% for the first, 47% for the second.

“799573 (kA*kA*kT*dA*dA*dA*dA*d[5mC]*d[5mC]*dA*dT*d[5mC]*dT*kA*kA*k[5mC]; antisense) [compound 799573]” and “799769 (k[5mC]*k[5mC]*kA*d[5mC]*d[5mC]*dA*dA*d[5mC]*d[5mC]*dT*d[5mC]*dT*dG*kT*kG*kG; antisense) [compound 799769]” are the same in “% Inhibition” value: 0% for the first, 0% for the second.

With “799275 (antisense k[5mC]*kA*kG*dT*dT*dA*dA*dT*d[5mC]*dA*dT*dT*dA*k[5mC]*kT*k[5mC]) [compound 799275]” the “% Inhibition” value was 0%.

Same assay, conditions: Hep3B cells, electroporation with 10,000 nM antisense oligonucleotide, approximately 24 hours, SMAD7 mRNA by RT-PCR (RTS5062), relative to untreated control cells

First: 798866 (kG*kT*k[5mC]*d[5mC]*dT*dG*dG*dA*dG*dT*d[5mC]*d[5mC]*dG*kG*kG*kT; antisense) [compound 798866]
Second: 830119 (k[5mC]*k[5mC]*kG*dA*d[5mC]*d[5mC]*dT*dT*d[5mC]*d[5mC]*dT*d[5mC]*d[5mC]*k[5mC]*kA*k[5mC]; antisense) [compound 830119]
The “% Inhibition” value of the first is lower: 20% for the first, 24% for the second.

First: 798870 (kG*kG*kG*dA*dA*d[5mC]*dA*d[5mC]*d[5mC]*dT*dT*dG*dT*kG*kT*kA; antisense) [compound 798870]
Second: 799370 (antisense kG*kG*k[5mC]*dA*d[5mC]*dT*d[5mC]*dA*d[5mC]*dT*dA*dA*dG*kT*k[5mC]*kT) [compound 799370]
The “% Inhibition” value of the first is higher: 14% for the first, 13% for the second.

Going from “830178 (antisense kA*k[5mC]*kG*dA*d[5mC]*dA*dG*d[5mC]*d[5mC]*dT*dG*dG*dA*kG*kA*k[5mC]) [compound 830178]” to “799328 (kA*kT*kG*d[5mC]*dA*d[5mC]*dA*d[5mC]*dT*d[5mC]*dT*d[5mC]*d[5mC]*k[5mC]*kA*kG; antisense) [compound 799328]”, the “% Inhibition” value falls from 32% to 0%.

Compared with “798814 (kA*k[5mC]*k[5mC]*dA*dG*dT*dG*dT*dG*dA*d[5mC]*d[5mC]*dG*kA*kT*k[5mC]; antisense) [compound 798814]”, “798887 (k[5mC]*kT*kG*dA*dT*d[5mC]*dT*dG*d[5mC]*dA*d[5mC]*dG*dG*kT*kA*kA; antisense) [compound 798887]” is higher in “% Inhibition” value: 25% for the first, 26% for the second.

Going from “799945 (antisense kA*kG*k[5mC]*dT*dT*dT*dT*dA*dG*dA*dG*d[5mC]*dT*kG*k[5mC]*kG) [compound 799945]” to “790515 (k[5mC]*kG*kT*d[5mC]*dA*dG*d[5mC]*dT*dG*dG*dA*dT*dG*k[5mC]*k[5mC]*kG; antisense) [compound 790515]”, the “% Inhibition” value rises from 5% to 26%.

Going from “830061 (k[5mC]*kT*kA*d[5mC]*d[5mC]*dA*d[5mC]*d[5mC]*d[5mC]*d[5mC]*dT*dG*dT*kG*kA*kA; antisense) [compound 830061]” to “799433 (antisense kT*kT*k[5mC]*dT*dT*dG*dT*dG*dG*dG*dA*dT*dG*kT*kG*kG) [compound 799433]”, the “% Inhibition” value rises from 4% to 56%.

First: 799920 (antisense kG*kA*kT*dG*dA*dA*dT*dG*d[5mC]*dT*d[5mC]*d[5mC]*dT*kA*kA*kG) [compound 799920]
Second: 800084 (antisense kG*k[5mC]*k[5mC]*dA*dA*dA*dT*d[5mC]*dA*d[5mC]*dA*dA*d[5mC]*kA*kT*kG) [compound 800084]
The “% Inhibition” value of the first is lower: 0% for the first, 57% for the second.

Going from “830198 (antisense kA*kG*kG*d[5mC]*dT*dA*d[5mC]*dA*d[5mC]*d[5mC]*dA*dA*dA*kG*kA*k[5mC]) [compound 830198]” to “830169 (antisense k[5mC]*kT*k[5mC]*dT*dG*dT*dT*dT*dG*dG*dA*d[5mC]*dA*kA*kG*kT) [compound 830169]”, the “% Inhibition” value rises from 30% to 58%.

Same assay, conditions: Hep3B cells, electroporation with 10,000 nM antisense oligonucleotide, approximately 24 hours, primer probe set RTS5062, relative to untreated control cells

Going from “799202 (antisense kT*kT*kT*dT*dT*dT*dT*d[5mC]*dA*dG*dG*dA*dG*kT*k[5mC]*k[5mC]) [compound 799202]” to “799167 (antisense kA*kA*kG*dA*dA*d[5mC]*dA*dG*dT*dG*dT*d[5mC]*dG*kA*kA*kG) [compound 799167]”, the “% inhibition of SMAD7 mRNA expression” value rises from 33% to 58%.

Going from “798943 (antisense k[5mC]*kG*kA*dG*dG*dA*d[5mC]*dG*dA*dG*dA*dA*dG*kA*kA*kG) [compound 798943]” to “799386 (antisense kA*kG*kG*dA*dG*d[5mC]*dT*dA*dA*dA*dT*dG*dG*kT*kG*k[5mC]) [compound 799386]”, the “% inhibition of SMAD7 mRNA expression” value falls from 13% to 12%.

Going from “799251 (antisense kA*kG*kG*dT*dG*d[5mC]*dG*d[5mC]*dG*dG*d[5mC]*d[5mC]*dA*k[5mC]*kG*kA) [compound 799251]” to “798949 (antisense kA*kG*kA*dG*d[5mC]*dG*dA*dA*dA*d[5mC]*dA*dA*dA*kA*k[5mC]*kA) [compound 798949]”, the “% inhibition of SMAD7 mRNA expression” value rises from 37% to 55%.

Compared with “798970 (antisense kT*k[5mC]*k[5mC]*dT*dG*d[5mC]*d[5mC]*dG*dA*dT*d[5mC]*dA*dT*kA*k[5mC]*k[5mC]) [compound 798970]”, “798788 (kT*k[5mC]*kT*dG*dG*dA*dG*dT*dA*dA*dG*dG*dA*kG*kG*kG; antisense) [compound 798788]” is lower in “% inhibition of SMAD7 mRNA expression” value: 41% for the first, 31% for the second.

For “799217 (kG*kT*kT*dA*dT*dT*dT*dG*d[5mC]*dA*dT*dT*dT*kA*kT*kA; antisense) [compound 799217]”, the “% inhibition of SMAD7 mRNA expression” value was 0%.

First: 799113 (antisense kG*kA*kT*dG*dG*dG*dA*dG*d[5mC]*dA*dG*dG*d[5mC]*kA*kG*kT) [compound 799113]
Second: 799173 (antisense k[5mC]*kT*kA*dA*dA*d[5mC]*dA*dT*dG*d[5mC]*dT*d[5mC]*dA*kT*kT*kG) [compound 799173]
The “% Inhibition” value of the first is higher: 57% for the first, 18% for the second.

Compared with “798978 (antisense kT*kT*kT*dG*dG*dT*dG*dG*dT*dG*d[5mC]*dT*dT*kG*kG*kA) [compound 798978]”, “772700 (k[5mC]*kT*kT*dT*dA*dA*dT*dA*dA*dA*dT*d[5mC]*dT*k[5mC]*kA*kG; antisense) [compound 772700]” is lower in “% Inhibition” value: 25% for the first, 24% for the second.

Same assay, conditions: Hep3B cells, electroporation, 10,000 nM antisense oligonucleotide, approximately 24 hours, RTS5062, relative to untreated control cells

Compared with “799576 (kG*kA*kA*dA*dG*dG*dA*d[5mC]*d[5mC]*d[5mC]*dT*dT*dT*k[5mC]*kA*kA; antisense) [compound 799576]”, “799582 (kA*k[5mC]*kA*dA*dA*d[5mC]*d[5mC]*dT*dT*d[5mC]*d[5mC]*dG*dA*kA*kA*kG; antisense) [compound 799582]” is lower in “% inhibition of SMAD7 mRNA expression” value: 25% for the first, 19% for the second.

“799554 (kT*kA*k[5mC]*d[5mC]*dT*dG*dT*dG*dA*dG*d[5mC]*d[5mC]*d[5mC]*kT*kG*kA; antisense) [compound 799554]” and “799692 (antisense kA*k[5mC]*kA*d[5mC]*dA*dG*dT*dA*dA*d[5mC]*dA*dA*d[5mC]*kA*kA*kT) [compound 799692]” are the same in “% inhibition of SMAD7 mRNA expression” value: 0% for the first, 0% for the second.

In the case of “799270 (antisense kA*kG*kT*d[5mC]*dA*dG*dG*d[5mC]*dT*d[5mC]*dA*dA*dT*kG*kA*kG) [compound 799270]”, the “% inhibition of SMAD7 mRNA expression” value is reported as 16%.

Same assay, conditions: SMAD7 mRNA, Hep3B cells, 10,000 nM antisense oligonucleotide, electroporation, approximately 24 hours, primer probe set RTS5062, relative to untreated control cells

“829736 (antisense kG*kG*kA*dG*d[5mC]*dG*dA*dA*d[5mC]*dA*dT*dG*dA*k[5mC]*k[5mC]*kT) [compound 829736]” and “829726 (antisense k[5mC]*kT*k[5mC]*d[5mC]*dG*dT*dG*dG*d[5mC]*dA*dT*dG*d[5mC]*kG*k[5mC]*k[5mC]) [compound 829726]” are the same in “% Inhibition” value: 41% for the first, 41% for the second.

First: 829781 (antisense k[5mC]*k[5mC]*kG*dG*d[5mC]*d[5mC]*dA*d[5mC]*d[5mC]*dT*dG*dA*dA*k[5mC]*kA*k[5mC]) [compound 829781]
Second: 790696 (k[5mC]*kA*kA*dA*dG*dG*dT*dA*dA*dG*d[5mC]*d[5mC]*dA*kG*k[5mC]*kT; antisense) [compound 790696]
The “% Inhibition” value of the first is lower: 31% for the first, 41% for the second.

First: 829790 (k[5mC]*k[5mC]*k[5mC]*dG*dT*dA*dA*dG*dA*dT*dT*d[5mC]*dA*k[5mC]*kA*kG; antisense) [compound 829790]
Second: 772739 (kT*kA*k[5mC]*dT*d[5mC]*dA*d[5mC]*d[5mC]*dA*dG*dT*dT*dG*kG*kT*kT; antisense) [compound 772739]
The “% Inhibition” value of the first is higher: 51% for the first, 0% for the second.

Same assay, conditions: SMAD7 mRNA, Hep3B cells, electroporation with 10,000 nM antisense oligonucleotide, approximately 24 hours, primer probe set RTS5062, relative to untreated control cells

With “829968 (kA*kA*k[5mC]*d[5mC]*d[5mC]*d[5mC]*d[5mC]*dA*dG*dG*dG*dA*dA*kT*kG*k[5mC]; antisense) [compound 829968]” the “% Inhibition” value was 30%.
